Experimental findings from EP0104041B1, “Enzyme inhibitors” (priority 1982, dated 1984) are described below.

The target in one test is T1, human renin (Homo sapiens, UniProt P00797).
T1 sequence (P00797 67-406): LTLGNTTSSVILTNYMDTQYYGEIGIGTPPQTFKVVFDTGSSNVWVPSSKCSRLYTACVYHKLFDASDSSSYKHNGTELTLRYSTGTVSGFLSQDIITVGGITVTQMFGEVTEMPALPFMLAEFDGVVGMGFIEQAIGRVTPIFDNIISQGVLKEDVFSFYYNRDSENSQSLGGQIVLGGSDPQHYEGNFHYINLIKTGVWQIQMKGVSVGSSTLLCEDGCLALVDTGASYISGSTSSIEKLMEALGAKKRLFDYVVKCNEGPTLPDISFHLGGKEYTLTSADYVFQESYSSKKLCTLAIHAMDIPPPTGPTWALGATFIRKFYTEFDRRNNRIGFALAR
The test can be described thus: renin inhibition, methods of the applicants' published European specification (0 045 665). It is filed as biochemical. The note with it: against human renin. From the text: (§1) This compound is the subject of Example 1 below.

The test system of a further test is baboon renin. The test can be described thus: renin inhibition, baboon renin. It is filed as biochemical. The note with it: against baboon renin; preliminary results.
From the text: as §1

As usually defined, the IC50 is the concentration needed to halve the response being measured. Low values mean higher potency, high ones lower potency.

Non-standard residues stand in square brackets, D forms with d. Residues, ends and D or L forms follow the SMILES beside them. Sta = CC(C)C[C@H](N)[C@@H](O)CC(=O)O

As to `CC[C@H](C)[C@H](NC(=O)[C@@H](NC(=O)C[C@H](O)[C@H](CC(C)C)NC(=O)[C@H](Cc1c[nH]cn1)NC(=O)[C@H](Cc1ccccc1)NC(=O)[C@@H]1CCCN1C(=O)[C@@H](N)Cc1c[nH]cn1)C(C)C)C(=O)N[C@@H](Cc1c[nH]cn1)C(=O)O` [Example 1] (H-HPFH[Sta]VIH-OH), the IC50 on human renin is 16 nM.
As to `CC[C@H](C)[C@H](NC(=O)[C@@H](NC(=O)C[C@H](O)[C@H](CC(C)C)NC(=O)[C@H](Cc1c[nH]cn1)NC(=O)[C@H](Cc1ccccc1)NC(=O)[C@@H]1CCCN1C(=O)[C@H](Cc1c[nH]cn1)NC(=O)[C@@H]1CCCN1)C(C)C)C(=O)N[C@@H](Cc1c[nH]cn1)C(=O)N[C@@H](CCCCN)C(=O)O` [Example H-189] (H-PHPFH[Sta]VIHK-OH), the IC50 in the test on baboon renin turned out to be 12 nM; against human renin (preliminary results), 9 nM.
